Molecular target: T1, human factor Xa (Homo sapiens, UniProt P00742)
T1 construct: Purified human factor Xa; purchased Alexis Corporation, Nottingham, UK
Assay: Enzyme inhibition assay, chromogenic substrate pefachrome-FXA
Format: biochemical
Conditions: room temperature, 0.1M phosphate buffer, pH7.4

T1 sequence (P00742 235-488 limits assumed): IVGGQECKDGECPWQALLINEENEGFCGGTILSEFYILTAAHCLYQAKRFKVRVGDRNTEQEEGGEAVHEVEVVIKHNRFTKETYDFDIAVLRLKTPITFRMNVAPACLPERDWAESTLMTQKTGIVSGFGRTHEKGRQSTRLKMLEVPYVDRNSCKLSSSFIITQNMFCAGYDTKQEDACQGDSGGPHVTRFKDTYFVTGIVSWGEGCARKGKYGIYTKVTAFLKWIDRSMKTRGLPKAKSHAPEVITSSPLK
T1 sequence (P00742 41-179 partner limits assumed): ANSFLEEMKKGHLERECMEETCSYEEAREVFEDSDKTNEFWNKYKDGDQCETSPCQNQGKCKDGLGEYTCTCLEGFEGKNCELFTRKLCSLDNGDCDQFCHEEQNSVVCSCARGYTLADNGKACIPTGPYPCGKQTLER

| SMILES | Ki |
| --- | --- |
| CN1CCC(C2CCN(C(=O)[C@H](NC(=O)c3ccc4ccnc(N)c4c3)c3ccccc3)CC2)CC1 [Example 75, 1-Aminoisoquinolin-7-oyl-D-phenylglycine-4,4′-(1′-methyl)bipiperidinamide] | 0.008 µM |
| N=C(N)c1ccccc1 [benzamidine] | 155 µM |

— patent publication US6420438B1, “1-amino-7-isoquinoline derivatives as serine protease inhibitors” (Tularik Limited, priority 1998, dated 2002)
